Structures are written as SMILES.

Broadly, the IC50 is the point on the concentration scale where inhibition reaches its midpoint.

Series [1] can be described thus: Antioxidant activity assessed as DPPH radical scavenging activity measured after 30 mins. It is filed as functional. In general terms: Loss of DPPH colour is used to gauge radical scavenging.
Another series has as its system MCF7. The series is described as follows: Anticancer activity against human MCF7 cells assessed as cell growth inhibition measured after 72 hrs by MTT assay. It is filed as functional, cell-based. The conditions noted are these: MCF7, 72 h. For orientation: Tetrazolium assays rely on reduction of a dye to a coloured formazan, in cell work by metabolically active cells.

In another series the test system is PC-3. The series is described as follows: Anticancer activity against human PC-3 cells assessed as cell growth inhibition measured after 72 hrs by MTT assay. Conditions: PC-3, 72 h. It is filed as functional, cell-based.
Series [2] in a line: Induction of insulin-sensitizing activity in insulin-resistant human HepG2 cells assessed as increase in glucose consumption at 60 ng/ml relative to control. Type of series: functional, insulin-resistant human HepG2 cell.
In series [3] the test system is Mus musculus. The series is described as follows: Antidiabetic activity in STZ-induced Swiss albino mouse assessed as inhibition of IL-1beta level at 5 microM/kg, ip administered twice daily measured after 21 days relative to control. Further details: scale not given: the % may be the effect or the level left. The conditions noted are these: time 21 day, at 5 µmol/kg. It is filed as functional.

Series [4] concerns Mus musculus. The series is described as follows: Antidiabetic activity in STZ-induced Swiss albino mouse assessed as blood glucose level at 5 microM/kg, ip administered twice daily measured after 21 days (reference value: 220 +/- 7.2mg/dl). It is filed as functional. The conditions noted are these: time 21 day.
The test system of series [5] is Mus musculus. Put plainly: Antidiabetic activity in STZ-induced Swiss albino mouse assessed as inhibition of NO level at 5 microM/kg, ip administered twice daily measured after 21 days relative to control. Set-up: scale not given: the % may be the effect or the level left. The conditions noted are these: time 21 day, at 5 µmol/kg. Type of series: functional.
The subject of series [6] is Mus musculus. Put plainly: Antidiabetic activity in STZ-induced Swiss albino mouse assessed as inhibition of IFN-gamma level at 5 microM/kg, ip administered twice daily measured after 21 days relative to control. Type of series: functional. Set-up: scale not given: the % may be the effect or the level left. The conditions noted are these: time 21 day, at 5 µmol/kg.
The subject of series [7] is Mus musculus. Put plainly: Antiinflammatory activity in STZ-induced C57BL/6J mouse of non insulin dependent diabetes mellitus assessed as PPAR-alpha level at 30 mg/kg. It is filed as functional.
In series [8] the test system is Mus musculus. The series is described as follows: Antidiabetic activity in STZ-induced C57BL/6J mouse assessed as increase in insulin sensitivity at 30 mg/kg. It is filed as functional.
Series [9] relates to Mus musculus. Put plainly: Antidiabetic activity in STZ-induced Swiss albino mouse assessed as insulin level at 5 microM/kg, ip administered twice daily measured after 21 days (reference value: 88.7%). It is filed as functional. Conditions: time 21 day, at 5 µmol/kg.
A short description of series [10]: Induction of insulin-sensitizing activity in insulin-resistant human HepG2 cells assessed as increase in glucose consumption at 30 ng/ml relative to control. Type of series: functional, insulin-resistant human HepG2 cell.
Series [11] in a line: Antioxidant activity assessed as DPPH radical scavenging activity measured after 1 hrs. Type of series: functional.
In series [12] the test system is Human immunodeficiency virus. The series is described as follows: Antiviral activity against HIV infected in MT4 cells assessed as viral replication. It is filed as functional, organism-based. Conditions: Human immunodeficiency virus 1, MT4.
Another series deals with Rattus norvegicus. Put plainly: Antidiabetic activity against overnight fasted STZ-induced Wistar rat of type 1 diabetes assessed as increase in insulin level at 1 mg/kg, po by ELISA (reference value: 7.7 +/- 1.0 microIU/mL). Type of series: functional.
Series [13] in a line: Toxicity in STZ-induced Wistar rat of type 1 diabetes assessed as coronary arterial flow rate at 3 mg/kg, ip administered twice daily measured after 4 weeks (reference value: 12.6 +/- 0.5 mL/min). It is filed as organism-based. The conditions noted are these: in vivo, 672 h.

Consider `CC(=O)/C=C/c1ccc(O)c(O)c1O`, for which the IC50 in series [1] is 16.8 µM. `CCCCCCCCCCOC/C=C/c1ccc(O)cc1`: the 50% inhibitory concentration (IC50) was > 10 µM in the series with MCF7 and > 10000 nM in the series on PC-3. As for `CCCCCCCCCCOC/C=C/c1cccc(O)c1`, the IC50 with MCF7 was > 10 µM; in the series on PC-3, > 10000 nM. With `O=C(/C=C/c1ccc(O)c(O)c1)OCCc1ccccc1` [CAFFEIC ACID PHENETHYL ESTER], the Activity in series [2] came to 24.3%; with Mus musculus [3], 43.2%; in the series on Mus musculus [4], 137 mg/dL; in the series on Mus musculus [5] it was 58.3%; with Mus musculus [6] it was 26.3%; with Mus musculus [7], 38.6%. In addition, the values for the Activity (with Mus musculus [8]; in the series with Mus musculus [9]; in series [10]) were 20.8%, 93.8% and 17.1%, respectively. On to `CCCCCCCCCCOC/C=C/c1ccc(O)c(O)c1`, for which the figures for the IC50 with MCF7 and in the series with PC-3 were 1.7 µM and 600 nM, respectively. In the case of `Oc1ccc(/C=C/COCCc2ccccc2)cc1O`, the IC50 was 8 µM with MCF7 and 1200 nM in the series on PC-3. As for `Oc1ccc(/C=C/COCCCCCCc2ccccc2)cc1O`, the figures for the IC50 in the series on MCF7 and with PC-3 were 2.4 µM and 1400 nM, respectively. Consider `CCCCCCCCCCOC/C=C/c1cc(O)c(O)c(O)c1`, for which the half-inhibitory concentration (IC50) with MCF7 was determined as 0.8 µM; with PC-3 it was 600 nM. As to `O=C(O)/C=C/c1ccc(O)c(O)c1` [CAFFEIC ACID], in series [1], the half-inhibitory concentration (IC50) is 32.2 µM.

For `O=C(/C=C/c1ccc(O)c(O)c1)O[C@H]1[C@H](O)C[C@](O)(C(=O)O)C[C@H]1OC(=O)/C=C/c1ccc(O)c(O)c1`, the FRS50 in series [11] turned out to be 23.8 µM.

In the case of `COC(=O)/C=C/c1cc(O)c(O)cc1O`, in [1], the IC50 worked out at 53.3 µM.

For `O=C(/C=C/c1ccc(O)c(O)c1)O[C@@H]1[C@H](O)C[C@@](O)(C(=O)O)C[C@H]1OC(=O)/C=C/c1ccc(O)c(O)c1`, in series [11], the FRS50 amounted to 19.8 µM. Turning to `C[C@@]1(C(=O)O)O[C@H]1COC(=O)/C=C/c1ccc(O)c(O)c1`, the FRS50 in series [11] was 43.8 µM. As for `Oc1ccc(/C=C/COCCCCCCc2ccccc2)cc1`, the results for the 50% inhibitory concentration (IC50) in the series with MCF7 and in the series on PC-3 were > 10 µM and > 10000 nM, respectively. In the case of `O=C(/C=C/c1ccc(O)c(O)c1)O[C@@H]1C[C@](O)(C(=O)O)C[C@@H](OC(=O)/C=C/c2ccc(O)c(O)c2)[C@H]1O`, the FRS50 in series [11] came out at 71.8 µM. With `O=C1C=C(Cn2cc(COc3ccc(CO)cc3)nn2)C(=O)C=C1O`, in series [12], the IC50 was 4.2 µM. With `O=C(/C=C/c1ccc(O)c(O)c1)NCCc1ccccc1` [CAFFEIC ACID PHENETHYL AMIDE], the Activity is 14.9 uIU/ml with Rattus norvegicus and 11.2 mL/min in series [13].

As for `COC(=O)/C=C/c1ccc(O)c(O)c1O`, in series [1], the IC50 came to 18.6 µM. Turning to `Oc1ccc(/C=C/COCCc2ccccc2)cc1`, the IC50 with MCF7 was > 10 µM; in the series with PC-3 it was > 10000 nM. Consider `O=c1c(O)c(-c2ccc(O)c(O)c2)oc2cc(O)cc(O)c12`, for which the FRS50 in [11] came to 13.4 µM.

The record behind these values is ChEMBL document CHEMBL5331056 (Eur J Med Chem, 2022).
